Three compounds from patent publication US9598447B2, “Phosphorus-substituted quinoxaline-type piperidine compounds and uses thereof” (Purdue Pharma L.P., priority 2010, dated 2017) can be followed below.

The structures appear in SMILES notation. Like-named read-outs stand apart in the source and are kept apart here. Where only a bound is given, the exact number is not on record here.

The test concerns the target delta opioid receptor (Homo sapiens (Human), UniProt P41143). The experiment in a line: In vitro delta-opioid receptor binding assay ([3H]-Naltrindole displacement).
[1] abbreviates: recombinant receptor expressed in CHO-K1 cells, read-out: Ki [Average ± Std Deviation] Opioid Receptor Delta.

delta opioid receptor, sequence (P41143 whole entry): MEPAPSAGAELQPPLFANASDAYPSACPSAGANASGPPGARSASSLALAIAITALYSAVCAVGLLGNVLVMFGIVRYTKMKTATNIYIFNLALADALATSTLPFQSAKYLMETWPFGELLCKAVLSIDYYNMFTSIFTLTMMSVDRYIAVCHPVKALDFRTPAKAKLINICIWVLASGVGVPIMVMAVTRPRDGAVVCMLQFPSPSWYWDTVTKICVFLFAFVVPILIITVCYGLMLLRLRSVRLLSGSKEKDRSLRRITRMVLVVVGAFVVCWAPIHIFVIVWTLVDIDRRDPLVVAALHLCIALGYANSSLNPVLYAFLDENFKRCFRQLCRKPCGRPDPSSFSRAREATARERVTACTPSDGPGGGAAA

As to `O=c1c(P(=O)(O)O)nc2ccccc2n1[C@H]1C[C@H]2CC[C@@H](C1)N2C12CC3CC(CC1C3)C2` [BB, (4-((1R,3R,5S)-8-((2R,3as,5S,6aS)-octahydro-2,5-methanopentalen-3a-yl)-8-azabicyclo[3.2.1]octan-3-yl)-3-oxo-3,4-dihydroquinoxalin-2-yl)phosphonic acid], under setting [1], the Ki was > 20 µM.
In the case of `O=c1c(P(=O)(O)O)nc2ccccc2n1[C@H]1C[C@H]2CCC[C@@H](C1)N2C1CCCCCCC1` [DD, (4-((1R,3R,5S)-9-cyclooctyl-9-azabicyclo[3.3.1]nonan-3-yl)-3-oxo-3,4-dihydroquinoxalin-2-yl)phosphonic acid], under setting [1], the Ki was > 20 µM.
On to `O=C(NP(=O)(O)O)c1nc2ccccc2n([C@H]2C[C@H]3CCC[C@@H](C2)N3C2CCCCCCC2)c1=O` [KK, (4-((1R,3R,5S)-9-cyclooctyl-9-azabicyclo[3.3.1]nonan-3-yl)-3-oxo-3,4-dihydroquinoxaline-2-carbonyl)phosphoramidic acid], for which the Ki is > 20 µM.
